What was measured:
SLC22A15 = biological target: T1, SLC22A15 (Homo sapiens, UniProt Q8IZD6); assay: Uptake ratio screen, SLC22A15-overexpressing HEK293 over empty vector cells; assay type: cell-based; conditions: 2.5 μM (nicotine 10 μM), 2 min
T1 construct: by amplifying the entire gene-of-interest within the HEK293 genome via a long-range PCR
Description: (§1) Typically discussed substrates of the proton organic-cation antiporter ([14]) are highlighted in dark green in Figure 1.
(§2) In preparation for transport experiments, 24-well plates were pre-coated with poly-D-lysine (Sigma-Aldrich) and 300,000 cells were plated per well and incubated for 48 h. Firstly, the 24-well plate was placed on a heating plate at 37 °C, and the cells were washed with 37 °C HBSS^+ buffer (Hank’s balanced salt solution supplemented with 10 mM Hepes and adjusted to pH 7.4; Thermo Fisher Scientific). The substance-of-interest, which was diluted in 37 °C HBSS^+ to a desired concentration, was added to the cells for exactly 2 min. […] The uptake was stopped with ice-cold HBSS^+, and the 24-well plate was removed from the heating plate. The cells were washed twice with the cold HBSS^+ before they were lysed for 15 min with 80% (v/v) acetonitrile containing the respective internal standard for mass spectrometry. For variations in seeded cell numbers between the cell lines, several wells were lysed in RIPA buffer and used for total protein quantification using a bicinchoninic assay ([74]) and bovine serum albumin as calibration.
(§3) The intracellular drug concentrations after transport experiments were analyzed by high-performance liquid chromatography coupled to tandem mass spectrometry analysis. The HPLC consisted of a Shimadzu Nexera HPLC System with a SIL-30AC autosampler, a LC-30AD pump, a CTO-20AC column oven, and a CBM-20A controller (Shimadzu). The reverse-phase chromatography of compounds was accomplished with a Brownlee SPP RP-Amide column with 4.6 × 100 mm inner dimensions, a particle size of 2.7 μm, and a preceding Phenomenex C-18 guard column. The mobile phase was composed of an organic additive with acetonitrile:methanol 6:1 (v/v) in total concentrations between 3% and 50% (v/v) and 0.1% (v/v) formic acid in the aqueous component of the eluent. During separation, the column oven was held at 40 °C and the mobile phase was maintained at a flow rate of 300 or 400 μl/min. After separation, the detection of substances was performed with an API 4000 tandem mass spectrometer (AB SCIEX, https://sciex.com/support/software-support/software-downloads), followed by quantification of results with the Analyst software (AB SCIEX, version 1.6.2). The composition of chromatographic conditions, as well as detailed mass spectrometric detection parameters, are listed in Table S5.
(§4) Transport-mediated net uptake was determined as fold-increase of transporter-overexpressing cells over empty vector–transfected control cells.

SLC35F2 = biological target: T2, SLC35F2 (Homo sapiens, UniProt Q8IXU6); conditions: SLC35F2; ratio of Vmax over KM
T2 sequence (Q8IXU6 1-374): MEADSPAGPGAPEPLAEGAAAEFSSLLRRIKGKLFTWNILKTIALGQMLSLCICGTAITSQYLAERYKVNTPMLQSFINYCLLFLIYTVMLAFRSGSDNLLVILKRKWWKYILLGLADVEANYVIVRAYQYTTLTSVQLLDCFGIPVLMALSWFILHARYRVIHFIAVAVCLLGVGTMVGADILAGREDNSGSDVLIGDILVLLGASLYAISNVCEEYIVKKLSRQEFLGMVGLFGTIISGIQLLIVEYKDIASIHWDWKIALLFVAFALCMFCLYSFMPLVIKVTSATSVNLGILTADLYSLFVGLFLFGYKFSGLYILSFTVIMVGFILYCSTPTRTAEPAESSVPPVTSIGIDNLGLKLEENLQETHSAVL

SLC35G3 [1] = biological target: T3, SLC35G3 (Homo sapiens, UniProt Q8N808); assay: Uptake ratio screen, SLC35G3-overexpressing HEK293 over empty vector cells; assay type: cell-based; set-up: by amplifying the entire gene-of-interest within the HEK293 genome via a long-range PCR; conditions: 2.5 μM substrate, 2 min, HEK293
T3 sequence (Q8N808 whole entry): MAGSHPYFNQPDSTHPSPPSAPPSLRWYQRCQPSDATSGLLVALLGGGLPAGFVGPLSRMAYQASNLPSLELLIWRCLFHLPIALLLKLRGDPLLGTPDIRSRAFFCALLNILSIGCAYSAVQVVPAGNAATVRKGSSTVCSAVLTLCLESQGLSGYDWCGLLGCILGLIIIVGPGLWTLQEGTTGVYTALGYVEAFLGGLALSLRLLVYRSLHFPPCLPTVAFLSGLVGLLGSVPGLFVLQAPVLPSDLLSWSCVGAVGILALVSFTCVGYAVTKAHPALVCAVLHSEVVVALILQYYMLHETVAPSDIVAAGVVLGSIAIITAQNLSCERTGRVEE

SLC35E2A [2] = biological target: T4, SLC35E2A (Homo sapiens, UniProt P0CK97); assay: Uptake ratio screen, SLC35E2A-overexpressing HEK293 over empty vector cells; assay type: cell-based; set-up: by amplifying the entire gene-of-interest within the HEK293 genome via a long-range PCR; conditions: 2.5 μM, 2 min
T4 sequence (P0CK97 whole entry): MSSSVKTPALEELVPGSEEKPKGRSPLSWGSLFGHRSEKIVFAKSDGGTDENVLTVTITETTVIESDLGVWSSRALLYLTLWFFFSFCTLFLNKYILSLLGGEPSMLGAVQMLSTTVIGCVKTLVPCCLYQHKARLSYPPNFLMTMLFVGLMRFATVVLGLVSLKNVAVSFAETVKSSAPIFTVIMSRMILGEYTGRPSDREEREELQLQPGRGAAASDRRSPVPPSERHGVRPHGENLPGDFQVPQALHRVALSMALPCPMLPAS
Description: as §1, §2
(§5) The intracellular drug concentrations after transport experiments were analyzed by high-performance liquid chromatography coupled to tandem mass spectrometry analysis. The HPLC consisted of a Shimadzu Nexera HPLC System with a SIL-30AC autosampler, a LC-30AD pump, a CTO-20AC column oven, and a CBM-20A controller (Shimadzu). The reverse-phase chromatography of compounds was accomplished with a Brownlee SPP RP-Amide column with 4.6 × 100 mm inner dimensions, a particle size of 2.7 μm, and a preceding Phenomenex C-18 guard column. […] After separation, the detection of substances was performed with an API 4000 tandem mass spectrometer (AB SCIEX, https://sciex.com/support/software-support/software-downloads), followed by quantification of results with the Analyst software (AB SCIEX, version 1.6.2). […]
as §4

SLC35F4 = biological target: T5, SLC35F4 (Homo sapiens, UniProt A4IF30); assay: Uptake ratio screen, SLC35F4-overexpressing HEK293 over empty vector cells; assay type: cell-based; set-up: by amplifying the entire gene-of-interest within the HEK293 genome via a long-range PCR; conditions: 2.5 μM, 2 min
T5 sequence (A4IF30 1-521): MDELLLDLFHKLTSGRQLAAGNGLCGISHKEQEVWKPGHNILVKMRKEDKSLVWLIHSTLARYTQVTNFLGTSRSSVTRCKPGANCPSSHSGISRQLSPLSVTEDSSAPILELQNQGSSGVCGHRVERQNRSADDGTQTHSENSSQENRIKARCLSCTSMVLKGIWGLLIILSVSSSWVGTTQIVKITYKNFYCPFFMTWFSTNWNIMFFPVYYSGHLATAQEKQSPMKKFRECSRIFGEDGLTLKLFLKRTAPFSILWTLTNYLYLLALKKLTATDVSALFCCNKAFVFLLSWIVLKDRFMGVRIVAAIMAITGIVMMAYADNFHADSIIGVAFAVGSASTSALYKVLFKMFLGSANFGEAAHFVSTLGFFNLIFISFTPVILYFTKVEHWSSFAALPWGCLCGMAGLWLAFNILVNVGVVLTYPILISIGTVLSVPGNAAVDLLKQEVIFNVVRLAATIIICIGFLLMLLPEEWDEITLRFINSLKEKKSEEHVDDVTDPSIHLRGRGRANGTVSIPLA
Description: as §1, §2, §3, §4

SLC35F5 = biological target: T6, SLC35F5 (Homo sapiens, UniProt Q8WV83); assay: Uptake ratio screen, SLC35F5-overexpressing HEK293 over empty vector cells; assay type: cell-based; set-up: by amplifying the entire gene-of-interest within the HEK293 genome via a long-range PCR; conditions: 2.5 μM, 2 min
T6 sequence (Q8WV83 1-523): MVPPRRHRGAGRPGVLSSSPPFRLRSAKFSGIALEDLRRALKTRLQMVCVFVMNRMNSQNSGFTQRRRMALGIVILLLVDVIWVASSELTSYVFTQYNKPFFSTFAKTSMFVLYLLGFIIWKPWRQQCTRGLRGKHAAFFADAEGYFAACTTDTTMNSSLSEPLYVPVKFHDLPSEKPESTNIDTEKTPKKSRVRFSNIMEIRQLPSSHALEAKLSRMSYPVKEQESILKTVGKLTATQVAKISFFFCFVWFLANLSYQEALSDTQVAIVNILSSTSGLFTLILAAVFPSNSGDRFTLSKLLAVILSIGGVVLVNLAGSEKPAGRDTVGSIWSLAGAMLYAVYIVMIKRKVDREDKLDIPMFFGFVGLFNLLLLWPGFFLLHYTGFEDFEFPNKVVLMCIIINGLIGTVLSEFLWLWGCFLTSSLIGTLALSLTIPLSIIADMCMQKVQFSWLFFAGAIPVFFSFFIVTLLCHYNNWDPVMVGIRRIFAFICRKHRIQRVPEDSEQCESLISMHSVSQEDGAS
Description: as §1, §2, §3, §4

SLC35G3 [3] = biological target: T3, SLC35G3; conditions: ratio of Vmax over KM
SLC35E2A [4] = biological target: T4, SLC35E2A; conditions: ratio of Vmax over KM
SLC19A2 = biological target: T7, SLC19A2 (Homo sapiens, UniProt O60779); assay: Uptake ratio screen, SLC19A2-overexpressing HEK293 over empty vector cells; assay type: cell-based; conditions: 2.5 μM, 2 min
T7 construct: expressed in transfected cells
T7 sequence (O60779 1-497): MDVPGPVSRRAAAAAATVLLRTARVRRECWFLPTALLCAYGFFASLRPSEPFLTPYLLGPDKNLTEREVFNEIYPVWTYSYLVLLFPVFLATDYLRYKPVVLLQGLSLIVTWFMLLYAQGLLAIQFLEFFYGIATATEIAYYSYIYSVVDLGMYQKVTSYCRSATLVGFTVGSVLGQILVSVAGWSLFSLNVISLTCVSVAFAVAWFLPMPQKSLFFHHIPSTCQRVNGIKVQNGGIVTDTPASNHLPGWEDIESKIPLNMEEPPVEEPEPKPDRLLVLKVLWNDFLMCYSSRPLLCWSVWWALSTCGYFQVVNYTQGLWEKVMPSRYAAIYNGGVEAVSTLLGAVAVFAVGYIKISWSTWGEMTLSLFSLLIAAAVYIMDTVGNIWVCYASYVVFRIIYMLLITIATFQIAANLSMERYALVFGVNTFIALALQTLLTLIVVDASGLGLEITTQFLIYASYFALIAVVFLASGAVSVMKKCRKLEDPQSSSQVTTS
Description: as §1, §2, §5, §4

SLC19A3 = biological target: T8, SLC19A3 (Homo sapiens, UniProt Q9BZV2); assay: Uptake ratio screen, SLC19A3-overexpressing HEK293 over empty vector cells; assay type: cell-based; conditions: 2.5 μM, 2 min
T8 construct: expressed in transfected cells
T8 sequence (Q9BZV2 whole entry): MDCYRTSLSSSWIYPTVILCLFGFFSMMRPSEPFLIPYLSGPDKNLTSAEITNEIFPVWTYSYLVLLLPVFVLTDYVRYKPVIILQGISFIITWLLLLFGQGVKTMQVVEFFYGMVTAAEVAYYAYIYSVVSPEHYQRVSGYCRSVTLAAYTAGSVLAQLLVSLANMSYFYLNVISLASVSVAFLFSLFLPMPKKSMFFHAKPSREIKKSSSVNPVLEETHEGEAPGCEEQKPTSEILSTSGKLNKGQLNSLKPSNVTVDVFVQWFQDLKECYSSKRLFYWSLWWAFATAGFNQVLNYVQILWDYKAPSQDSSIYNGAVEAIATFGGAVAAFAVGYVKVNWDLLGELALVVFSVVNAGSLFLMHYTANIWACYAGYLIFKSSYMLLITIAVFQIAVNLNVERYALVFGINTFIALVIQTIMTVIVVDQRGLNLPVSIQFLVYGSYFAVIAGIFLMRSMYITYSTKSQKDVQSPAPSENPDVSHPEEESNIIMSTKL
Description: as §1
In preparation for transport experiments, 24-well plates were pre-coated with poly-D-lysine (Sigma-Aldrich) and 300,000 cells were plated per well and incubated for 48 h. Firstly, the 24-well plate was placed on a heating plate at 37 °C, and the cells were washed with 37 °C HBSS^+ buffer (Hank’s balanced salt solution supplemented with 10 mM Hepes and adjusted to pH 7.4; Thermo Fisher Scientific). The substance-of-interest, which was diluted in 37 °C HBSS^+ to a desired concentration, was added to the cells for exactly 2 min. […] For variations in seeded cell numbers between the cell lines, several wells were lysed in RIPA buffer and used for total protein quantification using a bicinchoninic assay ([74]) and bovine serum albumin as calibration.
The intracellular drug concentrations after transport experiments were analyzed by high-performance liquid chromatography coupled to tandem mass spectrometry analysis. […] After separation, the detection of substances was performed with an API 4000 tandem mass spectrometer (AB SCIEX, https://sciex.com/support/software-support/software-downloads), followed by quantification of results with the Analyst software (AB SCIEX, version 1.6.2). […]

T1 sequence (Q8IZD6 whole entry): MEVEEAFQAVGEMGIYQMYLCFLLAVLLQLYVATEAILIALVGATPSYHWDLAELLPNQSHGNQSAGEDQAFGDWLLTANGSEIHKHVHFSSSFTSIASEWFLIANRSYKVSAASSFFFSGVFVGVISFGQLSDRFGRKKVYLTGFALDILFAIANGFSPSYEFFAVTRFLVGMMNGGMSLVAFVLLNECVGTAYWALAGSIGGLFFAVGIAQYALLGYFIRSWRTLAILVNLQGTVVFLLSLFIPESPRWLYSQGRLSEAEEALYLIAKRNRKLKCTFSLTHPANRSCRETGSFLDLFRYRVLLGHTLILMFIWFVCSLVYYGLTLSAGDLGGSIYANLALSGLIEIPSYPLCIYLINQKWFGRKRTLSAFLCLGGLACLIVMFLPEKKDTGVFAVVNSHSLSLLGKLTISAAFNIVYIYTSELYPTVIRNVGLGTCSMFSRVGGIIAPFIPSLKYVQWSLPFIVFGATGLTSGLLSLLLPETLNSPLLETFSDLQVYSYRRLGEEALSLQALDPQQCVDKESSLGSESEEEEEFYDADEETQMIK

| SMILES | Uptake by SLC22A15 (in words) (SLC22A15) | Clint (±SEM) (SLC35F2) | Uptake data for SLC35G3, mean value (fold-increase over empty vector control) (SLC35G3 [1]) | Uptake by SLC35E2A (in words) (SLC35E2A [2]) | Uptake by SLC35F4 (in words) (SLC35F4) | Uptake by SLC35F5 (in words) (SLC35F5) | Clint (±SEM) (SLC35G3 [3]) | Clint (±SEM) (SLC35E2A [4]) | Uptake by SLC19A2 (in words) (SLC19A2) | Uptake by SLC19A3 (in words) (SLC19A3) |
| --- | --- | --- | --- | --- | --- | --- | --- | --- | --- | --- |
| COC(=O)[C@H]1[C@@H](OC(=O)c2ccccc2)C[C@@H]2CC[C@H]1N2C [Cocaine] | significantly increased the uptake | 2.58 (±2.11) μl × mg protein^-1 × min^-1 | 2.02 | relatively high activity | enhanced cell uptake | highest uptake rates | 1.59 (±0.57) μl × mg protein^-1 × min^-1 | 4.14 (±1.59) μl × mg protein^-1 × min^-1 |  |  |
| COc1ccc2c3c1O[C@H]1C(=O)CC[C@@]4(O)[C@@H](C2)N(C)CC[C@]314 [Oxycodone] | significantly increased the uptake |  | 1.86 | relatively high activity |  |  |  | 3.44 (±1.49) μl × mg protein^-1 × min^-1 | enhance cell uptake |  |
| C[n+]1ccc(-c2ccccc2)cc1 [MPP^+, 1-methyl-4-phenylpyridinium] |  |  |  |  |  |  |  |  |  | moderate |

From paper PMC11406361, “Several orphan solute carriers functionally identified as organic cation transporters: Substrates specificity compared with known cation transporters” (The Journal of Biological Chemistry, 2024)
